Reference: publication PMC9595134, “Novel pituitary actions of GnRH in teleost: The link between reproduction and feeding regulation” (Frontiers in Endocrinology, 2022)
Where a SMILES comes first, the peptide text is derived from it. [ ]: non-standard residue; d: D form. pGlu = O=C1CC[C@@H](C(=O)O)N1

Tested on: grass carp pituitary cells
Experiment: qRT-PCR of anorectic genes in pituitary cells
Type: cell-based, grass carp (Ctenopharyngodon idellus)
Experimental: The preparation of grass carp pituitary cells was performed as mentioned above. After drug treatment, the total RNA of these cells was isolated by TRIzol reagent and reverse transcribed into cDNA with Hifair™ III 1st Strand cDNA Synthesis Kit. The transcript levels of several anorectic peptides (POMCb, CART2, UTS1, NMBa, NMBb, and Lepr) and reproductive genes (GtHα, LHβ, FSHβ, INHBa, SgII, DRD2) were detected by using an ABI 7500 quantitative real-time PCR (qRT-PCR) system (Biosystems, USA) (information of primers for target genes is listed in Supplementary Table S3 ). In this process, a serial gradient dilution of plasmid DNA of these genes was used as a standard for data calibration. The conditions of qRT-PCR were set to 10 min, 95°C, for pre-degeneration; 15 s, 95°C, for degeneration; 30 s, 55°C–60°C, for annealing; 30 s, 72°C, for extending; and 20 s, 82°C, for signal detection with 40 cycles. Finally, the melt curve obtained through each test was used to verify and check the reliability and specificity of the corresponding qRT-PCR.
The transcript level was detected using qRT-PCR by ABI 7500 software, while the data calibration of each reaction was performed through standard curves with the dynamic range of 10^5 and correlation coefficient >0.95. The transcript level of β-actin was used as an internal control, and target gene mRNA expression was normalized and calculated as a percentage of the mean value (as “% Ctrl”). Based on merging four to eight replicates (as mean ± SEM), the data were analyzed with a one-way ANOVA to differentiate the significant differences from other treatment experiments. The SPSS Statistics 26.0 software was used to do a Dunnett’s post-hoc test. […] The different letters represent a significant difference at p < 0.05 between groups.
To further verify the functional role of GnRH2 and GnRH3 on feeding regulation, time- and dose-dependent tests were performed to detect the effect of GnRH2 and GnRH3 on anorectic gene (POMCb, CART2, UTS1, NMBa, NMBb, and LEPR) mRNA expression. In the time-course test, the grass carp pituitary cells were incubated by GnRH2 or GnRH3 (1 μM) for 3, 6, 12, and 24 h, respectively. […] In the dose-dependent test, grass carp pituitary cells were incubated by the continuous gradient dilution of GnRH2 or GnRH3 (0.1–1,000 nM) for 24 h.
Figure 9 Regulation of feeding hormone gene mRNA expression by GnRH2 and GnRH3 in grass carp pituitary cells. (A) Time-course experiment of grass carp GnRH2 (1 μM) and GnRH3 (1 μM) on POMCb, CART2, UTS1, NMBa, NMBb, and LEPR mRNA expression in grass carp pituitary cells. (B) Dose dependence of a 24-h treatment with increasing levels of GnRH2 and GnRH3 (0.1–1,000 nM) on POMCb, CART2, UTS1, NMBa, NMBb, and LEPR mRNA expression in grass carp pituitary cells. […]

## CC(C)C[C@H](NC(=O)[C@H](Cc1c[nH]c2ccccc12)NC(=O)CNC(=O)[C@H](Cc1ccc(O)cc1)NC(=O)[C@H](CO)NC(=O)[C@H](Cc1c[nH]c2ccccc12)NC(=O)[C@H](Cc1c[nH]cn1)NC(=O)[C@@H]1CCC(=O)N1)C(=O)N1CCC[C@H]1C(=O)NCC(N)=O [GnRH3] ([pGlu]HWSYGWLPG-NH2)
1 μM, 3, 6, 12, and 24 h, time-dependent, Figure 9A
  effect on POMCb, CART2, UTS1, NMBa, NMBb, and LEPR mRNA expression, time course: significantly induce
0.1–1,000 nM, 24 h, dose-dependent, Figure 9B
  effect on POMCb, CART2, UTS1, NMBa, NMBb, and LEPR mRNA expression, dose dependence: significantly induce
